Common to all, as to assay: NCI tumour cell line growth inhibition, 48 h
Assay [1] concerns UO-31 renal.
The subject of assay [2] is MDA-MB-231 breast.
Assay [3] deals with NCI-H522 lung.
Assay [4] deals with SR leukemia.
Assay [5] relates to M14 melanoma.
For assay [6], the system named is RXF 393 renal.
Assay [7] has as its system MOLT-4 leukemia.
Assay [8] has as its system DU-145 prostate.
In assay [9] the test system is RPMI-8226 leukemia.
Assay [10] has as its system OVCAR-5 ovarian.

Values joined by “and” are separate entries in the source; they are usually repeats but may differ in a detail not shown here. Equal values may be shown once.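 How tested: cells in 96-well plates exposed to compound for 48 hours at five concentrations. Here, GI50 denotes the concentration required for 50% inhibition of growth. Definition used: TGI = concentration required for complete inhibition of growth.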

Regarding `O=c1[nH]c2cc(O)ccc2n2cc3c(F)cccc3c12`, the GI50 is 0.995 µM in [1]; 6.42 µM in assay [2]; 0.785 µM in assay [3]; 0.509 µM in assay [4]; 1.38 µM in assay [5]; 0.969 µM in [6]. The GI50 in assay [7] is 2.16 µM; in assay [8] it was 6.78 µM; in assay [9], 4.38 µM; in assay [10] it was > 31.3 µM. Moreover, the TGI in assay [1] was > 100 µM; in assay [2] it was > 100 µM; in assay [3], > 100 µM; in assay [4], 28.9 µM; in [5] it was > 100 µM; in [6], > 100 µM. In addition, the TGI in assay [7], in assay [8], in [9] and in [10] was > 100 µM in each case.

On to `CCN(CC)CCOc1ccc(C2=C(c3ccccc3)CCc3cc(OC)ccc32)cc1`, for which the GI50 in assay [1] is 1.86 µM; in assay [2], 2.26 µM; in assay [3], 3.03 µM; in [4], 0.518 µM; in assay [5], 1.88 µM; in [6], 10.2 µM. The GI50 is 4.64 µM in assay [7], 6.69 µM in assay [8], 2.62 µM in [9] and 2.31 µM in [10]. In addition, the TGI in [1] came out at 4.13 µM; in assay [2] it was 7.44 µM; in assay [3] it was 9.25 µM; in assay [5] it was 3.82 µM; in assay [6] it was 35.9 µM; in assay [7], 21.3 µM. Besides, the values for the TGI in [8], in [9] and in assay [10] were 17.5 µM, 11.3 µM and 5.52 µM, respectively.

`CCCOc1c2cc(COC3OC(CO)C(O)C(O)C3O)cc1Cc1cc(COC3OC(CO)C(O)C(O)C3O)cc(c1OCCC)Cc1cc(COC3OC(CO)C(O)C(O)C3O)cc(c1OCCC)Cc1cc(COC3OC(CO)C(O)C(O)C3O)cc(c1OCCC)C2` (configuration not stated): the GI50 in assay [1] was > 100 µM and 28.8 µM; in assay [2] it was 45.2 µM and > 100 µM and 17 µM; in assay [3], 32.4 µM and 72.8 µM and 13.7 µM; in assay [4], 29.9 µM and 13.8 µM; in assay [5] it was 61.1 µM and 56.1 µM and 16.2 µM; in [6], 14.2 µM and 23.9 µM. The GI50 in assay [8] was > 100 µM and 35.1 µM; in [10], 41.8 µM and > 100 µM and 22 µM. Further, the TGI is > 100 µM in assay [1]; > 100 µM and 34.1 µM in assay [2]; > 100 µM and 26.6 µM in [3]; 48.9 µM and 29.5 µM in [4]; > 100 µM and 32.4 µM in assay [5]; 33.9 µM and 87 µM and 77.4 µM in assay [6]. Moreover, the TGI is 29 µM in assay [7]; > 100 µM in assay [8]; > 100 µM in assay [9]; > 100 µM and 55.2 µM in assay [10].

As to `CN1CCN(C(=S)SCN2C(=O)c3ccccc3S2(=O)=O)CC1`, the GI50 in assay [1] was 94.6 µM; in [2] it was 35.3 µM; in [3] it was 7.26 µM; in [4], 4.04 µM; in assay [5], 7.93 µM; in [6] it was 39.5 µM. The GI50 in assay [7] is 5.08 µM; in [8], 26.4 µM; in assay [9], 2.22 µM; in assay [10], 30.2 µM. The TGI in assay [1] was > 100 µM; in assay [2] it was > 100 µM; in assay [3], 34.1 µM; in assay [4], 13.4 µM; in assay [5], 22.8 µM; in assay [6], > 100 µM. Also, the TGI in assay [7] is 25.7 µM; in assay [8], > 100 µM; in assay [9], 6.87 µM; in [10], > 100 µM.

With `C#Cc1cccc(Nc2ncnc3ccc(-c4cncc(NS(C)(=O)=O)c4)cc23)c1`, the GI50 in assay [1] was 1.53 µM; in assay [2] it was 2.2 µM; in [3], 1.06 µM; in assay [4], 1.37 µM; in [5], 2.33 µM; in [6] it was 1.68 µM. Moreover, the GI50 was 1.41 µM in assay [7], 2.07 µM in assay [8], 2.18 µM in [9] and 1.07 µM in assay [10]. Besides, the TGI was found to be 14.5 µM in assay [1]; 8.06 µM in assay [2]; 3.28 µM in assay [3]; 5.74 µM in assay [4]; 11.2 µM in [5]; 4.84 µM in assay [6]. In addition, the TGI turned out to be 4.45 µM in [7], 12.8 µM in assay [8], 4.93 µM in assay [9] and 16.5 µM in assay [10].

With `O=c1[nH]c(-c2ccccn2)nc2sc3c(c12)CCCCCC3`, the GI50 in [1] was 5.87 µM; in assay [2] it was 8.76 µM; in assay [3], > 100 µM; in assay [4], 0.864 µM; in assay [5], 4.09 µM; in [6], 7.42 µM. The GI50 in assay [7] is 2.41 µM; in assay [8], 6.73 µM; in [9] it was 3.63 µM; in [10], 90.9 µM. Also, the TGI in assay [1], in assay [2], in assay [3], in assay [4], in assay [5] and in [6] was > 100 µM in each case. Also, the TGI in [7], in [8], in assay [9] and in [10] was > 100 µM each time.

With `CCCCCCCCCCCCCCCC(=O)OCC1OC(n2ccc(N)nc2=O)C(O)C1O` (configuration not stated), the TGI is > 44.7 µM in assay [1]; > 100 µM in assay [2]; > 100 µM in assay [3]; 84.5 µM in assay [4]; 33.7 µM in [5]; > 100 µM in [6]. In addition, the TGI in [7] was 44.8 µM; in assay [8], 67.2 µM; in assay [9], > 100 µM; in assay [10] it was > 100 µM.

As to `Cc1csc(Nc2nc(-c3cccc(Cl)c3)nc(C(Cl)(Cl)Cl)n2)n1`, the GI50 was 2.38 µM in assay [1]; 2.17 µM in assay [2]; > 33.3 µM in [3]; 16.8 µM in [4]; > 33.3 µM in assay [5]; 1.12 µM in assay [6]. In addition, the GI50 is 14 µM in assay [7], 0.713 µM in assay [8], 1.22 µM in [9] and 8.86 µM in [10]. In addition, the TGI in assay [1] was 15.7 µM; in assay [2], > 33.3 µM; in assay [3], > 33.3 µM; in assay [4] it was > 33.3 µM; in assay [5], > 33.3 µM; in assay [6], 6.44 µM. In addition, the TGI in assay [7] was > 33.3 µM; in assay [8], 2.01 µM; in assay [9], > 33.3 µM; in assay [10], > 33.3 µM.

Values taken from PubChem BioAssay (NCI).
